Experimental data: PubChem BioAssay (NCI)
Where “and” joins values, the source holds several entries; their conditions need not be identical. Equal values may be shown once.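 Compound exposure: 48 hours, 5 concentrations, 96-well plates. GI50: concentration for 50% inhibition of growth. At the TGI there is no net growth.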

Assays:
Assay in all cases: NCI anticancer screen, dose series, 48 h
U251 CNS = system: U251 CNS
DU-145 prostate = system: DU-145 prostate
COLO 205 colon = system: COLO 205 colon
OVCAR-3 ovarian = system: OVCAR-3 ovarian
SR leukemia = system: SR leukemia
OVCAR-4 ovarian = system: OVCAR-4 ovarian
T-47D breast = system: T-47D breast
BT-549 breast = system: BT-549 breast
IGROV1 ovarian = system: IGROV1 ovarian
SF-268 CNS = system: SF-268 CNS

COC12C(COC(N)=O)C3=C(C(=O)C(C)=C(N)C3=O)N1CC1C2N1C (stereo not drawn)
TGI (U251 CNS): 22.6 µM
TGI (DU-145 prostate): 15.3 µM
TGI (COLO 205 colon): 21.6 µM
TGI (OVCAR-3 ovarian): 35.4 µM
TGI (SR leukemia): 56.5 µM
TGI (OVCAR-4 ovarian): 28.1 µM
TGI (T-47D breast): 182 µM
TGI (BT-549 breast): 28.3 µM
TGI (IGROV1 ovarian): 28.6 µM
TGI (SF-268 CNS): 47 µM

Cn1c2ccccc2c2ncc3[nH]c4ccccc4c3c21
TGI (U251 CNS): 39.9 µM
TGI (COLO 205 colon): 39.1 µM
TGI (OVCAR-3 ovarian): 31.6 µM
TGI (OVCAR-4 ovarian): 32.1 µM
TGI (IGROV1 ovarian): 58.2 µM
TGI (SF-268 CNS): 61.8 µM

C[C@H](Nc1cc(Cl)nc2c1cnn2[C@@H]1O[C@H](COP(=O)(O)CP(=O)(O)O)[C@@H](O)[C@H]1O)c1ccccc1F
GI50 (U251 CNS): > 100 µM
TGI (U251 CNS): > 100 µM
GI50 (DU-145 prostate): > 100 µM
TGI (DU-145 prostate): > 100 µM
GI50 (COLO 205 colon): > 100 µM
TGI (COLO 205 colon): > 100 µM
GI50 (OVCAR-3 ovarian): > 100 µM
TGI (OVCAR-3 ovarian): > 100 µM
GI50 (SR leukemia): > 100 µM
TGI (SR leukemia): > 100 µM
GI50 (OVCAR-4 ovarian): > 100 µM
TGI (OVCAR-4 ovarian): > 100 µM
GI50 (T-47D breast): > 100 µM
TGI (T-47D breast): > 100 µM
GI50 (BT-549 breast): > 100 µM
TGI (BT-549 breast): > 100 µM
GI50 (IGROV1 ovarian): > 100 µM
TGI (IGROV1 ovarian): > 100 µM
GI50 (SF-268 CNS): > 100 µM
TGI (SF-268 CNS): > 100 µM

CS(=O)(=O)Nc1cc(-c2ccc3ncnc(Nc4c(Cl)ccc5c4OCO5)c3c2)cnc1Cl
GI50 (U251 CNS): 0.331 µM
TGI (U251 CNS): 2.63 µM
GI50 (DU-145 prostate): 0.24 µM
TGI (DU-145 prostate): 5.01 µM
GI50 (COLO 205 colon): 0.263 µM
TGI (COLO 205 colon): 1.35 µM
GI50 (OVCAR-3 ovarian): 0.127 µM
TGI (OVCAR-3 ovarian): 0.925 µM
GI50 (SR leukemia): 0.325 µM
TGI (SR leukemia): 3.41 µM
GI50 (OVCAR-4 ovarian): 0.348 µM
TGI (OVCAR-4 ovarian): 4.45 µM
GI50 (T-47D breast): 0.0243 µM
TGI (T-47D breast): 0.606 µM
GI50 (BT-549 breast): 0.132 µM
TGI (BT-549 breast): 1.04 µM
GI50 (IGROV1 ovarian): 0.0332 µM
TGI (IGROV1 ovarian): 0.209 µM
GI50 (SF-268 CNS): 0.119 µM
TGI (SF-268 CNS): 1.48 µM

CCCCCCCN=C(N)c1ccc(N2CCN(c3ccc(C(N)=NCCCCCCC)cc3)CC2)cc1
GI50 (U251 CNS): 1.45 µM
TGI (U251 CNS): 9.34 µM
GI50 (DU-145 prostate): 0.296 µM
TGI (DU-145 prostate): 21.8 µM
GI50 (COLO 205 colon): 1.54 µM
TGI (COLO 205 colon): > 52.6 µM
GI50 (OVCAR-3 ovarian): 0.162 µM
TGI (OVCAR-3 ovarian): 0.517 µM
GI50 (OVCAR-4 ovarian): 1.05 µM
TGI (OVCAR-4 ovarian): > 13.2 µM
TGI (T-47D breast): > 93.4 µM
TGI (SF-268 CNS): 0.317 µM

COC(=O)c1ccc(-c2c(C#N)[n+](=O)c3cc(Cl)c(Cl)cc3n2[O-])cc1
GI50 (U251 CNS): 16.7 µM
TGI (U251 CNS): 44.9 µM
GI50 (DU-145 prostate): 20.2 µM
TGI (DU-145 prostate): 40.9 µM
GI50 (COLO 205 colon): 22 µM
TGI (COLO 205 colon): 52.1 µM
GI50 (OVCAR-3 ovarian): 11 µM
TGI (OVCAR-3 ovarian): 27.8 µM
GI50 (OVCAR-4 ovarian): 19.7 µM
TGI (OVCAR-4 ovarian): 38 µM
GI50 (T-47D breast): 2.48 µM
TGI (T-47D breast): 6.08 µM
GI50 (BT-549 breast): 16.8 µM
TGI (BT-549 breast): 34 µM
GI50 (IGROV1 ovarian): 3.39 µM
TGI (IGROV1 ovarian): > 100 µM
GI50 (SF-268 CNS): 16.4 µM
TGI (SF-268 CNS): 32.1 µM

COc1cccc2c1C(=O)c1c(O)c3c(c(O)c1C2=O)C[C@@](O)(/C(C)=N/NC(=O)c1ccc(Cl)cc1)C[C@@H]3OC1CC(N)C(O)C(C)O1 (stereo partly drawn)
GI50 (DU-145 prostate): 0.271 µM
TGI (DU-145 prostate): 13.5 µM
GI50 (OVCAR-3 ovarian): 0.395 µM
TGI (OVCAR-3 ovarian): 2.4 µM
GI50 (OVCAR-4 ovarian): 0.348 µM
TGI (OVCAR-4 ovarian): 2.31 µM
GI50 (T-47D breast): 0.163 µM
TGI (T-47D breast): 1.79 µM
GI50 (IGROV1 ovarian): 0.138 µM
TGI (IGROV1 ovarian): 2.74 µM

Cc1cc(N(CCCNc2ccnc3cc(Cl)ccc23)Cc2ccc3c(c2)OCO3)nc(N2CCOCC2)n1
GI50 (U251 CNS): 0.323 µM
TGI (U251 CNS): 3.18 µM
GI50 (DU-145 prostate): 0.353 µM
TGI (DU-145 prostate): 53.8 µM
GI50 (COLO 205 colon): 0.269 µM
TGI (COLO 205 colon): 0.802 µM
GI50 (OVCAR-3 ovarian): 0.359 µM
TGI (OVCAR-3 ovarian): 1.92 µM
GI50 (OVCAR-4 ovarian): 0.402 µM
TGI (OVCAR-4 ovarian): 32.8 µM
GI50 (T-47D breast): 0.323 µM
TGI (T-47D breast): 0.998 µM
GI50 (BT-549 breast): 0.334 µM
TGI (BT-549 breast): 23.5 µM
GI50 (IGROV1 ovarian): 0.338 µM
TGI (IGROV1 ovarian): 3.47 µM
GI50 (SF-268 CNS): 0.304 µM
TGI (SF-268 CNS): 24.7 µM

CCOC(=O)/C=C/c1ccc(C#Cc2ccccc2)cc1
GI50 (U251 CNS): > 100 µM
TGI (U251 CNS): > 100 µM
GI50 (COLO 205 colon): > 100 µM
TGI (COLO 205 colon): > 100 µM
GI50 (OVCAR-3 ovarian): > 100 µM
TGI (OVCAR-3 ovarian): > 100 µM
GI50 (SR leukemia): 10.3 µM
TGI (SR leukemia): > 100 µM
GI50 (OVCAR-4 ovarian): 68.4 µM
TGI (OVCAR-4 ovarian): > 100 µM
GI50 (T-47D breast): 86.8 µM
TGI (T-47D breast): > 100 µM
GI50 (SF-268 CNS): > 100 µM
TGI (SF-268 CNS): > 100 µM

CCN(CC)CCSc1c2ccccc2nc2c(OC)ccc(OC)c12
TGI (U251 CNS): 49.4 µM
TGI (SR leukemia): 10.7 µM
TGI (OVCAR-4 ovarian): > 20 µM
TGI (IGROV1 ovarian): 51.4 µM
TGI (SF-268 CNS): 26.1 µM

C/C(=N\NC(=S)N1CCCCCC1)c1ccccn1
GI50 (U251 CNS): < 0.0131 µM
TGI (U251 CNS): 1.24 µM and 1.29 µM
GI50 (DU-145 prostate): 0.408 µM
TGI (DU-145 prostate): 6.29 µM and 3.25 µM
TGI (COLO 205 colon): 0.0286 µM
TGI (OVCAR-3 ovarian): 0.172 µM
GI50 (OVCAR-4 ovarian): < 0.0412 µM
TGI (OVCAR-4 ovarian): 2.52 µM and 3.25 µM
TGI (T-47D breast): 8.43 µM and 7.58 µM
TGI (BT-549 breast): 1.76 µM
GI50 (IGROV1 ovarian): < 0.0122 µM
TGI (IGROV1 ovarian): 2.66 µM and 6.59 µM
TGI (SF-268 CNS): 4.19 µM

CSc1ccccc1C#C/C=C\C#Cc1ccccc1N
GI50 (U251 CNS): 10.3 µM
TGI (U251 CNS): 55.3 µM
GI50 (DU-145 prostate): 15.4 µM
TGI (DU-145 prostate): 45.6 µM
GI50 (COLO 205 colon): 13.6 µM
TGI (COLO 205 colon): 29.5 µM
GI50 (OVCAR-3 ovarian): 0.836 µM
TGI (OVCAR-3 ovarian): 3.98 µM
GI50 (OVCAR-4 ovarian): 29.9 µM
TGI (OVCAR-4 ovarian): 71 µM
GI50 (T-47D breast): 17.6 µM
TGI (T-47D breast): 38.6 µM
GI50 (BT-549 breast): 3.27 µM
TGI (BT-549 breast): 9.17 µM
GI50 (SF-268 CNS): 3.3 µM
TGI (SF-268 CNS): 25.4 µM

COc1ccc(-c2nnc(N3CCN(C(=O)CN4CCN(c5ccccc5)CC4)CC3)nc2-c2ccc(OC)cc2)cc1
GI50 (U251 CNS): 4.14 µM
TGI (U251 CNS): > 100 µM
GI50 (DU-145 prostate): 13.4 µM
TGI (DU-145 prostate): > 100 µM
GI50 (COLO 205 colon): 2.57 µM
TGI (COLO 205 colon): 57.2 µM
GI50 (OVCAR-3 ovarian): 3.39 µM
TGI (OVCAR-3 ovarian): > 100 µM
GI50 (OVCAR-4 ovarian): 6.36 µM
TGI (OVCAR-4 ovarian): > 100 µM
GI50 (IGROV1 ovarian): 11.1 µM
TGI (IGROV1 ovarian): > 100 µM
GI50 (SF-268 CNS): 83.4 µM
TGI (SF-268 CNS): > 100 µM

Clc1nc(Cl)nc(Nc2cccc3ccccc23)n1
GI50 (U251 CNS): > 100 µM
TGI (U251 CNS): > 100 µM
GI50 (DU-145 prostate): > 100 µM
TGI (DU-145 prostate): > 100 µM
GI50 (COLO 205 colon): > 100 µM
TGI (COLO 205 colon): > 100 µM
GI50 (OVCAR-3 ovarian): > 100 µM
TGI (OVCAR-3 ovarian): > 100 µM
GI50 (SR leukemia): 18.3 µM
TGI (SR leukemia): 48.3 µM
GI50 (OVCAR-4 ovarian): > 100 µM
TGI (OVCAR-4 ovarian): > 100 µM
GI50 (T-47D breast): 98.5 µM
TGI (T-47D breast): > 100 µM
GI50 (IGROV1 ovarian): > 100 µM
TGI (IGROV1 ovarian): > 100 µM
GI50 (SF-268 CNS): > 100 µM
TGI (SF-268 CNS): > 100 µM

O=[P@@]1(c2ccccc2)O[C@H](COCc2ccccc2)[C@@H](OCc2ccccc2)[C@H](OCc2ccccc2)[C@H]1NCc1ccccc1
GI50 (U251 CNS): 2.97 µM
TGI (U251 CNS): > 100 µM
GI50 (DU-145 prostate): 4.97 µM
TGI (DU-145 prostate): > 100 µM
GI50 (COLO 205 colon): 1.93 µM
TGI (COLO 205 colon): 3.71 µM
GI50 (OVCAR-3 ovarian): 3.17 µM
TGI (OVCAR-3 ovarian): 19.3 µM
GI50 (SR leukemia): 2.37 µM
TGI (SR leukemia): 6.69 µM
GI50 (OVCAR-4 ovarian): 3.47 µM
TGI (OVCAR-4 ovarian): 48.9 µM
GI50 (T-47D breast): 2.85 µM
TGI (T-47D breast): 7.92 µM
GI50 (BT-549 breast): 2.89 µM
TGI (BT-549 breast): 16.2 µM
GI50 (SF-268 CNS): 3.47 µM
TGI (SF-268 CNS): > 100 µM

CC(C)(C)[Si](C)(C)OC1C(=O)C[C@H]2CCCC[C@@H]12 (stereo partly drawn)
TGI (U251 CNS): > 100 µM
TGI (COLO 205 colon): > 100 µM
TGI (OVCAR-3 ovarian): > 100 µM
TGI (OVCAR-4 ovarian): > 100 µM
TGI (IGROV1 ovarian): > 100 µM
TGI (SF-268 CNS): > 100 µM
